Data as given in patent publication US20240335569A1, “FIBROBLAST ACTIVATION PROTEIN INHIBITORS AND USE THEREOF” (3 B PHARMACEUTICALS GMBH, priority 2021, published 2024).

Legend:
[1] = target: FAP-expressing human WI-38 fibroblasts (Homo sapiens (Human), UniProt Q12884); assay: FACS binding assay (competitive, Cy5-labeled 3BP-2935)
Procedure: In order to determine binding of compounds according to the present invention to FAP-expressing cells, a competitive FACS binding assay was established. […] Cells were diluted in FACS buffer to a final concentration of 100.000 cells per ml and 200 μl of the cell suspension are transferred to a u-shaped non-binding 96-well plate (Greiner). […] Cell were washed twice with FACS buffer (see above) and resuspended in 200 μl FACS buffer. Cells were analyzed in an Attune NxT flow cytometer (Thermo Fisher Scientific). Median fluorescence intensities (Cy5 channel) were calculated by Attune NxT software and plotted against test compound concentrations. Four parameter logistic (4PL) curve fitting and pIC50 calculations were performed using ActivityBase software.

Recombinant human DPP4 = Recombinant human DPP4 (Homo sapiens (Human), UniProt P27487); assay: DPP4 protease activity assay; type: biochemical
Sequence of Recombinant human DPP4 (P27487 whole entry): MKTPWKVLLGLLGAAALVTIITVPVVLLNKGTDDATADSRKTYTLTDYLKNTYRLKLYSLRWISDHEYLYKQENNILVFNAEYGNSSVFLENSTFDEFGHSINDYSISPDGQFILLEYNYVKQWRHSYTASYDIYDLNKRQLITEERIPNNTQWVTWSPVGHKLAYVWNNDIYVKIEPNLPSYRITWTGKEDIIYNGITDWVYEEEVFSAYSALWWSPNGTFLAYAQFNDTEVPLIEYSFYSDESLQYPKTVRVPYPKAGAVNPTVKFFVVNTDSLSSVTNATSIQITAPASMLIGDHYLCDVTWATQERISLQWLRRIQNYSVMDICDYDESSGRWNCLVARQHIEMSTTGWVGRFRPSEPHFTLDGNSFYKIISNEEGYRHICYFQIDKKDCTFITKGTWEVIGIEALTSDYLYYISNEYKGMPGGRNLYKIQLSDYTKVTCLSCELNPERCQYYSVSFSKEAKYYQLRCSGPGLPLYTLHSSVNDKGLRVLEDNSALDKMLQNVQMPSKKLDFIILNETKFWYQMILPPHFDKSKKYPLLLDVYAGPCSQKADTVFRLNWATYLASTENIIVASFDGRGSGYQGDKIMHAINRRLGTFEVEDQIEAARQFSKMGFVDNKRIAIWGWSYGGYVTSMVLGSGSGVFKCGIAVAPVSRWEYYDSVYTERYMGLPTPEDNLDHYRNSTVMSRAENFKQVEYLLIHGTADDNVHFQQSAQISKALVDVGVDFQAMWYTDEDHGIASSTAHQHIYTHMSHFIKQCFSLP
Procedure: (§1) The PREP activity assay was performed using the FACS buffer (PBS including 1% FBS, Sigma-Aldrich, Cat #D8537). […] The DPP4 activity assay was performed in DPP assay buffer (25 mM Tris, pH 8.0). […] Four parameter logistic (4PL) curve fitting and pIC50 calculations were performed using ActivityBase software.

Human recombinant FAP [2] = target: T1, Human recombinant FAP (Homo sapiens (Human), UniProt Q12884); assay: Surface plasmon resonance assay (Biacore T200, SCK); type: binding; details: for HL [min] (Biacore): SPR dissociation half-life
Procedure: Surface plasmon resonance studies were performed using a Biacore™ T200 SPR system (Cytiva, formerly GE Healthcare). Briefly, polarized light is directed towards a gold-labeled sensor surface, and minimum intensity reflected light is detected. The angle of reflected light changes as molecules bind and dissociate. […] Test compounds are contacted with the loaded surface, and a real-time interaction profile with the FAP ligand is recorded in a sensorgram. In real-time, the association and dissociation of a binding interaction is measured, enabling calculation of association and dissociation rate constants and the corresponding affinity constants. Importantly, a background response is generated due to the difference in the refractive indices of the running and sample buffers, as well as unspecific binding of the test compounds to the flow cell surface. This background is measured and subtracted by running the sample on a control flow cell coated with the same density of capture antibody in the absence of immobilized FAP. Furthermore, baseline drift correction of the binding data is performed, which is caused by slow dissociation of the captured FAP from the immobilized antibody. This drift is measured by injecting running buffer through a flow cell with the antibody and FAP immobilized to the sensor surface.
Biacore™ CM5 sensor chips were used. […] A 150 μL aliquot was transferred into plastic vials and placed into the sample rack of the Biacore™ T200 instrument. Amine Coupling Kit Reagent solutions were transferred into plastic vials and placed into the sample rack: 90 μL of 0.4 M 1-ethyl-3-(3-dimethylaminopropyl) carbodiimide (EDC), and 90 μL of 0.1 M N-hydroxysuccinimide (NHS). A 130 μL aliquot of 1 M ethanolamine-HCl, pH 8.5, was transferred into plastic vials and placed into the sample rack. The Biacore™ liquid system was set-up as follows: Separate bottles containing distilled water (1 L), Running Buffer (500 mL), as well as an empty bottle for waste were placed onto the buffer tray. A preinstalled program for immobilization was used, with an immobilization level of 7000 RU. Immobilization was performed at 25° C. The immobilization procedure of anti-FAP antibodies was performed, as described in the Table 4.
Human recombinant FAP was diluted in Running Buffer to a final concentration of 20 μg/mL. A 100 μL aliquot of human FAP-Working-Solution was transferred into plastic vials and placed into a sample rack. A 0.5 mM Compound-Stock-Solution was prepared by dissolving each compound in DMSO. For each test compound, Compound-Stock-Solutions were diluted in Running Buffer (HBST) at 500 nM and further diluted with HBST-DMSO Buffer (0.1% DMSO). SPR binding analyses for binary complexes were performed in SCK mode at 25° C. Following three SCK measurements, a baseline drift was assessed by injecting running buffer through a flow cell, with the antibody and FAP immobilized to the sensor surface.
For each test compound, SPR raw data in the form of resonance units (RU) were plotted as sensorgrams using the Biacore™ T200 control software. The signal from the blank sensorgram was subtracted from that of the test compound sensorgram (blank corrected). The blank corrected sensorgram was corrected for baseline drift by subtracting the sensorgram of a SCK run without the test compound (running buffer only). The association rate (kon), dissociation rate (koff), dissociation constant (KD), and t1/2 were calculated from Blank-normalized SPR data using the 1:1 Langmuir binding model from the Biacore™ T200 evaluation software. Raw data and fit results were imported as text files in IDBS. The pKD value (negative decadic logarithm of dissociation constant) was calculated in the IDBS excel template.
Target sequence in this assay (Q12884 whole entry): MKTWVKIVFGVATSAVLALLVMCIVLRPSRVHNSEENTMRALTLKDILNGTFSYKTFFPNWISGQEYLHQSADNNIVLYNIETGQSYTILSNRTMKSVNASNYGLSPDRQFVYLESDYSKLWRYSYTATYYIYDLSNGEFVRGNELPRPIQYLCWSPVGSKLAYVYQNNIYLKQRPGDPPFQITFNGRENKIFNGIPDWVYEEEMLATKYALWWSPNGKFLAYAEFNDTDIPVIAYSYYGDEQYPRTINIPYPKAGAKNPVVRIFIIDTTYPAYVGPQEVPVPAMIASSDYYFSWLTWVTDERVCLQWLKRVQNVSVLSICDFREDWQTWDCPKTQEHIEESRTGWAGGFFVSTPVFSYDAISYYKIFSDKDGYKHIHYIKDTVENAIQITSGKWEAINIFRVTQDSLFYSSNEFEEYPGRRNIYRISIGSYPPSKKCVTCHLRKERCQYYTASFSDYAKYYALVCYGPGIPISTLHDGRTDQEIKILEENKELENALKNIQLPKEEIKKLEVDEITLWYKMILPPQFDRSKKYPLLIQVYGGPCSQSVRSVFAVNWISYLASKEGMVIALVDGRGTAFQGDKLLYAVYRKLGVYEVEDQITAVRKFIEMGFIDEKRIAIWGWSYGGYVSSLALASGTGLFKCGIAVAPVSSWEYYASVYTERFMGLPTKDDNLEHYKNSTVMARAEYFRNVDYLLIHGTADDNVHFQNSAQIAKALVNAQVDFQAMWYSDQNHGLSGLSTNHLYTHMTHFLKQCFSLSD

recombinant human PREP = recombinant human PREP (Homo sapiens (Human), UniProt P48147); assay: PREP protease activity assay; type: biochemical
Sequence of recombinant human PREP (P48147 whole entry): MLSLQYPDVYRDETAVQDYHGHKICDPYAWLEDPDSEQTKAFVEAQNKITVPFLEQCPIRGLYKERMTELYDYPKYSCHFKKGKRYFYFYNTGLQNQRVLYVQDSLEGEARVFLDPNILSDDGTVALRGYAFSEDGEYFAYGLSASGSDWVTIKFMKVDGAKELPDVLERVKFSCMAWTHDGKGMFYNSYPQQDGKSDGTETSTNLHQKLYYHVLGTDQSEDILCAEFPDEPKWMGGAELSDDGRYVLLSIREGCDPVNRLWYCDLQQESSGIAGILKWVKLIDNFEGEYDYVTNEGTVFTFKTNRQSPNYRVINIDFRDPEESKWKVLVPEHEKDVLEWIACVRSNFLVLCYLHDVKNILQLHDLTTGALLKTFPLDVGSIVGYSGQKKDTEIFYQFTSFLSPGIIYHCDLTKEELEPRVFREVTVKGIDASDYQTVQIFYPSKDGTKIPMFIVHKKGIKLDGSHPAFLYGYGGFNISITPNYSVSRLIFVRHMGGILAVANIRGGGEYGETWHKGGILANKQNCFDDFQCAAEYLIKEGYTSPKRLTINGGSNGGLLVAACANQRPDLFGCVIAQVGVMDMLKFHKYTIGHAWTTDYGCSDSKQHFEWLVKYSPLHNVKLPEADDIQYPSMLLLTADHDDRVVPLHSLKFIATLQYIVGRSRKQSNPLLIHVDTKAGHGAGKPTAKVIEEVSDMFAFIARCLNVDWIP
Procedure: as §1

Human recombinant FAP [3] = target: T1, Human recombinant FAP; assay: FAP protease activity assay (human), FRET-based; type: biochemical
Procedure: (§2) In order to determine the inhibitory activity a FRET-based FAP protease activity assay was established.
Four parameter logistic (4PL) curve fitting and pIC50 calculations were performed using ActivityBase software (IDBS).
Target sequence in this assay (Q12884 26-760): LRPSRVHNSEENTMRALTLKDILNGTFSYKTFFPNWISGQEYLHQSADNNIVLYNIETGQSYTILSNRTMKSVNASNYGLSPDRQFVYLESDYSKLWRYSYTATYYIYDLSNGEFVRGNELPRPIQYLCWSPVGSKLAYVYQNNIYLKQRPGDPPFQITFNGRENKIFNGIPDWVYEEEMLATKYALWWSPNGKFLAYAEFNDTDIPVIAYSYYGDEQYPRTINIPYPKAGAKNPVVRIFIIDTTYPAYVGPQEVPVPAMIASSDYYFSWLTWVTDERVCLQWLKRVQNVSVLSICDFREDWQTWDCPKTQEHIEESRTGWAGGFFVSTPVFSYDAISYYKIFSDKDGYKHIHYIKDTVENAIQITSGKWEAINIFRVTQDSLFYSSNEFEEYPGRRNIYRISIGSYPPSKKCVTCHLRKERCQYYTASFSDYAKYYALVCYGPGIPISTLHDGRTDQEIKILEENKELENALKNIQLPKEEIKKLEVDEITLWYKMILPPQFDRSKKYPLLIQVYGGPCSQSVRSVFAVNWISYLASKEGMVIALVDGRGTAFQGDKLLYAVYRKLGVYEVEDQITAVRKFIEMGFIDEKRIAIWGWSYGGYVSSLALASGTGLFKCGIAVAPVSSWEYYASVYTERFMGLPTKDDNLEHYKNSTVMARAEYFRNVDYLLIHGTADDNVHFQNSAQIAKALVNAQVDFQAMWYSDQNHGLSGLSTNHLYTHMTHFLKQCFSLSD

Recombinant mouse FAP = Recombinant mouse FAP (Mus musculus (Mouse), UniProt P97321); assay: FAP protease activity assay (mouse), FRET-based; type: biochemical
Sequence of Recombinant mouse FAP (P97321 whole entry): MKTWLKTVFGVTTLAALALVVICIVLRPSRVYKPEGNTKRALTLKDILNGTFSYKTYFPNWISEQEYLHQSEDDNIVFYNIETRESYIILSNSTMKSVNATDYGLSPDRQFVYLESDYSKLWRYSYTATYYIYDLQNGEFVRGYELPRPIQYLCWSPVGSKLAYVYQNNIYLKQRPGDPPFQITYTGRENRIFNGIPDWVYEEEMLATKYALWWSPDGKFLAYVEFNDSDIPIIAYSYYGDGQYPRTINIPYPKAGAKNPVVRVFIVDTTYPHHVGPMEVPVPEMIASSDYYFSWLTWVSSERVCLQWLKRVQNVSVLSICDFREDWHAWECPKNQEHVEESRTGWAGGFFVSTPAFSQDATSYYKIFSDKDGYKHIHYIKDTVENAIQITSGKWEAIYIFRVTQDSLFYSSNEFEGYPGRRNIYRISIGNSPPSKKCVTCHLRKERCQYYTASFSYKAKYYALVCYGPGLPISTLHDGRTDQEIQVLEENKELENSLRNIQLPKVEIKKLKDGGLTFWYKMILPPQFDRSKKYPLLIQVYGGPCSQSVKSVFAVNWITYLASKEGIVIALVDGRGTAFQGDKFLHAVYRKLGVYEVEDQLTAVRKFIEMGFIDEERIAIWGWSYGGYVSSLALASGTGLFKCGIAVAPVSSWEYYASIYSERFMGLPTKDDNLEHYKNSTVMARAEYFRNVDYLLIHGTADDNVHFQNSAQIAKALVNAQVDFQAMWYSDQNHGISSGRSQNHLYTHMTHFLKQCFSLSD
Procedure: as §2
Four parameter logistic (4PL) curve fitting and pIC50 calculations were performed using ActivityBase software.

HT-29 cells = assay: Stability in the presence of tumor cells (HT-29), FAP IC50 of supernatants; type: in vitro ADME, human
[4] = FAP-expressing WI-38 fibroblasts
[5] = recombinant human FAP, FRET protease activity
[6] = recombinant mouse FAP, FRET protease activity
[7] = recombinant mouse FAP protease activity
[8] = human FAP protease activity, FRET

Sequence of FAP-expressing human WI-38 fibroblasts (Q12884 whole entry): as the sequence (Q12884 whole entry) above

Row | SMILES | pIC50 (FACS) [1, 4] | pIC50 (DPP4) (Recombinant human DPP4) | pKD (Biacore) (Human recombinant FAP [2]; SPR) | HL [min] (Biacore) (Human recombinant FAP [2]) | pIC50 (PREP) (recombinant human PREP) | pIC50 (Activity) (Human recombinant FAP [3]; [5]) | pIC50 (FACS) ([1]; WI-38 fibroblasts) | pIC50 (mouseFAP) (Recombinant mouse FAP; [7]) | pIC50 (Activity) (Human recombinant FAP [3]; [8]) | other results
1 | CS(=O)(=O)c1cccc(-c2ccc3nccc(C(=O)NCC(=O)N4CCC[C@H]4C#N)c3c2)c1 [Compound 3BP-3132] | 8.4 | <6 | 9.4 | 2.5 | <6 | 9 |  |  |  | 
2 | CS(=O)(=O)c1cccc(-c2ccc3c(C(=O)NCC(=O)N4CCC[C@H]4C#N)ccnc3c2)c1 [Compound 3BP-3133] | 8.2 | <6 | 9.3 | 5.7 | <6 | 8.7 |  |  |  | 
3 | O=C(NCC(=O)N1CCC[C@H]1C(=O)c1nccs1)c1ccnc2ccccc12 [Compound 3BP-3206] | 7 | <6 | 7.9 | 0.3 | 7.6 | 7.3 |  |  |  | 
4 | CS(=O)(=O)c1ccc(-c2ccc3nccc(C(=O)NCC(=O)N4CC(F)(F)C[C@H]4C#N)c3c2)cc1 [Compound 3BP-3233] | 9 | <6 | >10.5 | 130 | <6 | 9.2 |  |  |  | pIC50 (mouseFAP) (Recombinant mouse FAP; [6]): 9.1
5 | CS(=O)(=O)c1ccc(-c2ccc3nccc(C(=O)NCC(=O)N4CCC[C@H]4C#N)c3c2)cc1 [Compound 3BP-3235] | 8.4 | <6 | 9.8 | 12 | <6 | 9.2 |  |  |  | 
6 | N#C[C@@H]1CCCN1C(=O)CNC(=O)c1ccnc2cc(-c3cccc(C(=O)O)c3)ccc12 [Compound 3BP-3293] | 8.6 | <6 |  |  | <6 | 8.8 |  |  |  | 
7 | N#C[C@@H]1CCCN1C(=O)CNC(=O)c1ccnc2ccc(-c3ccc(C(=O)O)cc3)cc12 [Compound 3BP-3295] |  |  |  | 11 |  |  |  |  |  | IC50 (recombinant human PREP): > 1000 nM
8 | N#C[C@@H]1CC(F)(F)CN1C(=O)CNC(=O)c1ccnc2c1=CC(OCCCN1CCN(C(=O)CN3CCN4CCN5CCN(CC3)CC(=O)[O][In]([O]C(=O)C5)[O]C(=O)C4)CC1)CC=2 (stereo partly shown) [Compound 3BP-3468] | 8.7 | <6 | 10.5 | 69 | <6 | 9.2 |  |  |  | pIC50 (mouseFAP) (Recombinant mouse FAP; [6]): 9
9 | N#C[C@@H]1CC(F)(F)CN1C(=O)CNC(=O)c1ccnc2ccc(OCCCN3CCN(C(=O)CN4CCN5CCN6CCN(CC4)CC(=O)[O][Lu]([O]C(=O)C6)[O]C(=O)C5)CC3)cc12 [Compound 3BP-3469] | 8.7 | <6 | 10.2 | 35.5 |  | 9.3 |  |  |  | pIC50 (incubation in cell medium w/o HT-29) (HT-29 cells; 10 μM compound, 24 hours at 37° C. in control wells without cells, supernatant tested on recombinant human FAP): 9.2; pIC50 (incubation in the presence of HT-29 cells) (HT-29 cells; 10 μM compound, 24 hours at 37° C. with HT-29 cells, supernatant tested on recombinant human FAP): 8.3; Residual activity after incubation with HT-29 cells for 24 hours (%) (HT-29 cells; HT-29 cells, 24 hours): 13%; pIC50 (mouseFAP) (Recombinant mouse FAP; [6]): 9.1
10 | CC(C)(C)c1nnc(C(=O)[C@@H]2CCCN2C(=O)CNC(=O)c2ccnc3ccccc23)o1 [Compound 3BP-3632] | 7.8 | <6 | 8.6 | 0.4 | 8.9 | 8.4 |  |  |  | pIC50 (mouseFAP) (Recombinant mouse FAP; [6]): 8.4
11 | CS(=O)(=O)c1ccc(-c2ccc3nccc(C(=O)NCC(=O)N4C[C@@H](F)C[C@H]4C#N)c3c2)cc1 [Compound 3BP-3774] |  | <6 |  |  |  |  | 8.8 | 9.2 | 9.2 | 
12 | CS(=O)(=O)c1cc(F)c(-c2ccc3nccc(C(=O)NCC(=O)N4CCC[C@H]4C#N)c3c2)c(F)c1 [Compound 3BP-3828] |  | <6 |  |  |  |  | 8.5 | 9 | 9.3 | 
13 | N#C[C@@H]1CC(F)(F)CN1C(=O)CNC(=O)c1ccnc2ccc(-c3ccc(C(=O)NCCCNC(O)CN4CCN5CCN6CCN(CC4)CC(=O)[O][Eu]([O]C(=O)C6)[O]C(=O)C5)cc3)cc12 (stereo partly shown) [Compound 3BP-3829] |  | <6 | >10.5 | >150 |  |  | 8.9 | 8.9 | 9.4 | 
14 | N#C[C@@H]1CCCN1C(=O)CNC(=O)c1ccnc2ccc(-c3ccc(C(=O)NCCCNC(O)CN4CCN5CCN6CCN(CC4)CC(=O)[O][Eu]([O]C(=O)C6)[O]C(=O)C5)cc3)cc12 (stereo partly shown) [Compound 3BP-3830] |  | <6 | 10 | 64 |  |  | 8.5 | 8.7 | 9.3 | 
15 | Cc1cc(S(C)(=O)=O)ccc1-c1ccc2nccc(C(=O)NCC(=O)N3CC(F)(F)C[C@H]3C#N)c2c1 [Compound 3BP-3952] |  | 6.1 |  |  |  |  | 8.7 | 8.8 | 9.3 | 
16 | Cc1cc(S(C)(=O)=O)ccc1-c1ccc2nccc(C(=O)NCC(=O)N3CCC[C@H]3C#N)c2c1 [Compound 3BP-3953] |  | <6 |  |  |  |  | 7.9 | 8.9 | 9.2 | 
17 | N#C[C@@H]1CCCN1C(=O)CNC(=O)c1ccnc2ccc(-c3ccc(C(=O)NCCCN(CC(=O)O)C(=O)CN4CCN(CC(=O)O)CCN(CC(=O)O)CCN(CC(=O)O)CC4)cc3)cc12 [Compound 3BP-3954, (S)-2,2′,2″-(10-(2-((carboxymethyl)(3-(4-(4-(2-(2-cyanopyrrolidin-1-yl)-2-oxoethylcarbamoyl)quinolin-6-yl)benzamido)propyl)amino)-2-oxoethyl)-1,4,7,10-tetraazacyclododecane-1,4,7-triyl)triacetic Acid] |  |  |  | >150 |  |  |  |  |  | IC50 ([1]; WI-38 fibroblasts): 3.98 nM; IC50 (Recombinant human DPP4; read-out: pIC50 (DPP4) (converted)): > 1000 nM; Kd (Human recombinant FAP [2]; SPR, read-out: pKD (Biacore) (converted)): < 0.0316 nM; IC50 (recombinant human PREP): > 1000 nM; IC50 (Human recombinant FAP [3]; human FAP protease activity, FRET, read-out: pIC50 (Activity) (converted)): 1.26 nM
